Read-outs that look alike come from different tables or passages of the source.
Tests used:
[1] = target: recombinant human Mcl-1 (residues 171-327) / Bim interaction (Homo sapiens (Human), UniProt Q07820); experiment: biochemical; assay type: binding; settings: read-out: Mcl-1 HTRF IC50
Protocol: The inhibition of the Mcl-1/Bim interaction was measured using a time-resolved fluorescence resonance energy transfer (TR-FRET) assay. […] The TR-FRET assay was conducted in a 384-well white OptiPlate™ (PerkinElmer, Waltham, Mass.) in a total volume of 40 μL. The reaction mixture contained 0.1 nM Mcl-1(171-327), 0.05 nM biotin-Bim (51-76), 0.05 nM LANCE® Eu-W1024 Anti-6×His (PerkinElmer), 0.072 nM Streptavidin-Xlent (Cisbio, Bedford, Mass.), and serially diluted test compounds in the binding buffer of 20 mM Hepes, pH 7.5, 150 mM NaCl, 0.016 mM Brij®35, and 1 mM dithiothreitol. Test compounds were pre-incubated with Mcl-1(171-327) and biotin-Bim (51-76) for 60 min before addition of the detection mixture (LANCE® Eu-W1024 Anti-6×His and Streptavidin-Xlent). The reaction plates were further incubated overnight and then were read on an Envision® multimode reader (PerkinElmer). Fluorescence signals were measured at 620 nm (40-nm bandwidth) and 665 nm (7.5-nm bandwidth) with a 60 is delay after excitation at 320 nm (75-nm bandwidth). The signal ratio at 665/620 nm corresponded to the Mcl-1/Bim interaction and was used in all data analyses. The IC50 values of test compounds were determined from duplicate data by analyzing competition curves using a four-parameter sigmoidal model in GraphPad Prism (GraphPad Software, San Diego, Calif.) or in Genedata Screener® (Genedata, Basel, Switzerland).

[2] = tested on: human multiple myeloma cell line, OPM-2; experiment: Cell viability assay (OPM-2 10 FBS), CellTiter-Glo; assay type: cell-based
Outline: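 3000 cells/well, RPMI 1640 + 10% FBS; serial compound dilutions, 16 h, 37 °C/5% CO2.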

[3] = TR-FRET, Mcl-1(171-327) / biotin-Bim (51-76)
[4] = Homo sapiens, OPM-2, 16 h, read-out: OPM-2 10% FBS IC50 IP, OPM-2 cells, 10% FBS, 16 h, CellTiter-Glo
[5] = 0.1 nM Mcl-1(171-327), 0.05 nM biotin-Bim (51-76)
[6] = Homo sapiens, OPM-2, 16 h, read-out: OPM-2 10% FBS IC50 IP, OPM-2 cells, 10% FBS, 16 h incubation

Sequence of recombinant human Mcl-1 (residues 171-327) / Bim interaction (Q07820 171-327): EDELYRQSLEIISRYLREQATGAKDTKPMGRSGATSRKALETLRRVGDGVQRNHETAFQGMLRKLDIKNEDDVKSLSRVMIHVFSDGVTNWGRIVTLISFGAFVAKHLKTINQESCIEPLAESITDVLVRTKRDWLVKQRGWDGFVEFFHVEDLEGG

Compound	IC50 [1, 3]	IC50 [2, 4]	IC50 [1, 5]	IC50 [2, 6]	other results
CO[C@]1(CCN2CCOCC2)/C=C/C[C@H](C)[C@@H](C)S(=O)(=O)NC(=O)c2ccc3c(c2)N(C[C@@H]2CC[C@H]21)C[C@@]1(CCCc2cc(Cl)ccc21)CO3 [Example 100365, (1S,3′R,6′R,7′R,8′E,11′S,12′R)-6-chloro-7′-methoxy-11′,12′-dimethyl-7′-(2-(4-morpholinyl)ethyl)-3,4-dihydro-2H,15′H-spiro[naphthalene-1,22′-[20]oxa[13]thia[1,14]diazatetracyclo [14.7.2.0~3,6~.0~19,24~]pentacosa[8,16,18,24]tetraen]-15′-one 13′,13′-dioxide]	0.257 nM	245 nM			
CCCCO[C@]1(CN2CCN3CCOC[C@@H]3C2)/C=C/C[C@H](C)[C@@H](C)S(=O)(=O)NC(=O)c2ccc3c(c2)N(C[C@@H]2CC[C@H]21)C[C@@]1(CCCc2cc(Cl)ccc21)CO3 [Example 48, (1S,3′R,6′R,7′R,8′E,11′S,12′R)-7′-butoxy-6-chloro-7′-((9aS)-hexahydropyrazino[2,1-c][1,4]oxazin-8(1H)-ylmethyl)-11′,12′-dimethyl-3,4-dihydro-2H,15′H-spiro[naphthalene-1,22′-[20]oxa[13]thia[1,14]diazatetracyclo [14.7.2.0~3,6~.0~19,24~]pentacosa[8,16,18,24]tetraen]-15′-one 13′,13′-dioxide]			0.14 nM	407 nM	
C[C@@H]1[C@@H](C)CCC[C@@](O)(COS(C)(=O)=O)[C@@H]2CC[C@H]2CN2C[C@@]3(CCCc4cc(Cl)ccc43)COc3ccc(cc32)C(=O)NS1(=O)=O [Example 100283, ((1S,3′R,6′R,7′S,11′S,12′R)-6-chloro-7′-hydroxy-11′,12′-dimethyl-13′,13′-dioxido-15′-oxo-3,4-dihydro-2H-spiro[naphthalene-1,22′-[20]oxa[13]thia[1,14]diazatetracyclo [14.7.2.0~3,6~.0~19,24~]pentacosa[16,18,24]trien]-7′-yl)methyl methanesulfonate]					IC50 [1]: 0.143 nM; IC50 ([2]; read-out: OPM-2 10% FBS IC50 IP, OPM-2 cells, 10% FBS, 16 h, CellTiter-Glo): 806 nM
C[C@@H]1[C@@H](C)CCC[C@](O)(CCN(C)C)[C@@H]2CC[C@H]2CN2C[C@@]3(CCCc4cc(Cl)ccc43)COc3ccc(cc32)C(=O)NS1(=O)=O [Example 100088, (1S,3′R,6′R,7′S,11′S,12′R)-6-chloro-7′-(2-(dimethylamino)ethyl)-7′-hydroxy-11′,12′-dimethyl-3,4-dihydro-2H,15′H-spiro[naphthalene-1,22′-[20]oxa[13]thia[1,14]diazatetracyclo [14.7.2.0~3,6~.0~19,24~]pentacosa[16,18,24]trien]-15′-one 13′,13′-dioxide]	2.12 nM	1340 nM			
C[C@@H]1[C@@H](C)C/C=C/[C@@]2(CCCO2)[C@@H]2CC[C@H]2CN2C[C@@]3(CCCc4cc(Cl)ccc43)COc3ccc(cc32)C(=O)NS1(=O)=O (single isomer, unassigned) [Example 100159]	0.559 nM	591 nM			
C[C@@H]1[C@@H](C)CCC[C@]2(CO2)[C@@H]2CC[C@H]2CN2C[C@@]3(CCCc4cc(Cl)ccc43)COc3ccc(cc32)C(=O)NS1(=O)=O (stereo in doubt) [Example 100164]	0.917 nM	967 nM			
C[C@@H]1[C@@H](C)CCC[C@](C#N)(NC(=O)c2ccccc2)[C@@H]2CC[C@H]2CN2C[C@@]3(CCCc4cc(Cl)ccc43)COc3ccc(cc32)C(=O)NS1(=O)=O [Example 100255, N-((1S,3′R,6′R,7′S,11′S,12′R)-6-chloro-7′-cyano-11′,12′-dimethyl-13′,13′-dioxido-15′-oxo-3,4-dihydro-2H-spiro[naphthalene-1,22′-[20]oxa[13]thia[1,14]diazatetracyclo [14.7.2.0~3,6~.0~19,24~]pentacosa[16,18,24]trien]-7′-yl)benzamide]	14.4 nM	5020 nM			
COCC[C@@H]1[C@@H](C)C/C=C/[C@@](CN2CCN(C3(C)COC3)CC2)(OC)[C@@H]2CC[C@H]2CN2C[C@@]3(CCCc4cc(Cl)ccc43)COc3ccc(cc32)C(=O)NS1(=O)=O [Example 192, (1S,3′R,6′R,7′R,8′E,11′S,12′R)-6-chloro-7′-methoxy-12′-(2-methoxyethyl)-11′-methyl-7′-((4-(3-methyl-3-oxetanyl)-1-piperazinyl)methyl)-3,4-dihydro-2H,15′H-spiro[naphthalene-1,22′-[20]oxa[13]thia[1,14]diazatetracyclo [14.7.2.0~3,6~.0~19,24~]pentacosa[8,16,18,24]tetraen]-15′-one 13′,13′-dioxide]			0.078 nM	65 nM	
CO[C@@]1(CN2CCN([C@@H]3CCOC3)CC2)/C=C/C[C@H](C)[C@@H](C)S(=O)(=O)NC(=O)c2ccc3c(c2)N(C[C@@H]2CC[C@H]21)C[C@@]1(CCCc2cc(Cl)ccc21)CO3 (single isomer, unassigned) [Example 286]			0.155 nM		IC50 ([2]; read-out: OPM-2 10% FBS IC50 IP, OPM-2 cells, 10% FBS, 16 h incubation): 50 nM
C[C@@H]1[C@@H](C)C/C=C/[C@@](C)(OCCN2CCOCC2)[C@@H]2CC[C@H]2CN2C[C@@]3(CCCc4cc(Cl)ccc43)COc3ccc(cc32)C(=O)NS1(=O)=O [Example 100467, (1S,3′R,6′R,7′R,8′E,11′S,12′R)-6-chloro-7′,11′,12′-trimethyl-7′-(2-(4-morpholinyl)ethoxy)-3,4-dihydro-2H,15′H-spiro[naphthalene-1,22′-[20]oxa[13]thia[1,14]diazatetracyclo [14.7.2.0~3,6~.0~19,24~]pentacosa[8,16,18,24]tetraen]-15′-one 13′,13′-dioxide]	0.303 nM	516 nM			
Cc1ncoc1C[C@]1(O)/C=C/C[C@H](C)[C@@H](C)S(=O)(=O)NC(=O)c2ccc3c(c2)N(C[C@@H]2CC[C@H]21)C[C@@]1(CCCc2cc(Cl)ccc21)CO3 [Example 100572, (1S,3′R,6′R,7′S,8′E,11′S,12′R)-6-chloro-7′-hydroxy-11′,12′-dimethyl-7′-((4-methyl-1,3-oxazol-5-yl)methyl)-3,4-dihydro-2H,15′H-spiro[naphthalene-1,22′-[20]oxa[13]thia[1,14]diazatetracyclo [14.7.2.0~3,6~.0~19,24~]pentacosa[8,16,18,24]tetraen]-15′-one 13′,13′-dioxide]	0.174 nM	1160 nM			
CO[C@@]1(CN2CCOC3(COC3)C2)/C=C/C[C@H](C)[C@@H](C)S(=O)(=O)NC(=O)c2ccc3c(c2)N(C[C@@H]2CC[C@H]21)C[C@@]1(CCCc2cc(Cl)ccc21)CO3 [Example 198, (1S,3′R,6′R,7′S,8′E,11′S,12′R)-6-chloro-7′-(2,5-dioxa-8-azaspiro[3.5]non-8-ylmethyl)-7′-methoxy-11′,12′-dimethyl-3,4-dihydro-2H,15′H-spiro[naphthalene-1,22′-[20]oxa[13]thia[1,14]diazatetracyclo [14.7.2.0~3,6~.0~19,24~]pentacosa[8,16,18,24]tetraen]-15′-one 13′,13′-dioxide]			0.181 nM	1310 nM	
CO[C@@]1(CN2CCN(c3ccncc3)CC2)/C=C/C[C@H](C)[C@@H](C)S(=O)(=O)NC(=O)c2ccc3c(c2)N(C[C@@H]2CC[C@H]21)C[C@@]1(CCCc2cc(Cl)ccc21)CO3 [Example 254, (1S,3′R,6′R,7′S,8′E,11′S,12′R)-6-chloro-7′-methoxy-11′,12′-dimethyl-7′-((4-(4-pyridinyl)-1-piperazinyl)methyl)-3,4-dihydro-2H,15′H-spiro[naphthalene-1,22′-[20]oxa[13]thia[1,14]diazatetracyclo [14.7.2.0~3,6~.0~19,24~]pentacosa[8,16,18,24]tetraen]-15′-one 13′,13′-dioxide]			1.2 nM	544 nM	
